Measured values published in ChEMBL document CHEMBL4400559, “Exploiting the furo[2,3-b]pyridine core against multidrug-resistant Mycobacterium tuberculosis” (Bioorg Med Chem Lett, 2019).
≈ marks a conversion by molar mass, not a printed value.

Experiments:
[1] = tested on: Mycobacterium tuberculosis; assay: Antibacterial activity against Mycobacterium tuberculosis H37Rv ATCC 27294 after 7 days by resazurin microtiter assay; format: functional; conditions: H37Rv ATCC 27294, 168 h
J774.A1 = assay: Cytotoxicity against mouse J774A.1 cells after 24 hrs by resazurin dye-based fluorescence assay; format: cell-based; conditions: J774.A1, 24 h
MRC5 = assay: Cytotoxicity against human MRC5 cells after 24 hrs by resazurin dye-based fluorescence assay; format: cell-based; conditions: MRC5, 24 h
[2] = Selectivity index, ratio of IC50 for mouse J774A.1 cells to MIC90 for Mycobacterium tuberculosis H37Rv ATCC 27294; format: toxicity; conditions: read-out: Selectivity Index
[3] = Selectivity index, ratio of IC50 for human MRC5 cells to MIC90 for Mycobacterium tuberculosis H37Rv ATCC 27294; format: toxicity; conditions: read-out: Selectivity Index

Compound	MIC90 [1]	IC50 (J774.A1)	IC50 (MRC5)	selectivity ratio [2]	selectivity ratio [3]
CNC(=O)c1c(-c2ccc(O)cc2)oc2ccc(O)c(CN3CCCCC3)c12	0.09 µM (≈ 0.0342 µg/mL)	–	–	–	–
CCOC(=O)c1c(C(C)C)oc2nccc(N3CCN(c4ccccc4)CC3)c12	> 63.6 µM	235 µM	–	–	–
CCOC(=O)c1c(C)oc2ncc(N3CC[C@@H](F)C3)cc12	> 85.6 µM	–	> 342 µM	–	–
CCCSc1ccc2c(C(=O)OCC)c(C(C)C)oc2n1	> 81.3 µM	–	–	–	–
CC(C)c1oc2nc(N3CCCC3)ccc2c1C(=O)O	> 91.1 µM	–	–	–	–
CCOC(=O)c1c(C(C)C)oc2nccc(N3CCN(c4ccc(Cl)cc4)CC3)c12	> 58.5 µM	> 234 µM	–	–	–
CCOC(=O)c1c(-c2ccccc2)oc2nc(N3CCCC3)ccc12	> 74.4 µM	–	> 298 µM	–	–
CCOC(=O)c1c(C)oc2nccc(N3CCOCC3)c12	> 86.1 µM	> 314 µM	–	–	–
Cc1oc2nc(N3CCCC3)ccc2c1C(=O)O	> 102 µM	–	–	–	–
N[C@@H]1CONC1=O [CYCLOSERINE]	37.1 µM (≈ 3.79 µg/mL)	–	–	–	–
CCOC(=O)c1c(C(C)C)oc2nc(N3CCCC3)ccc12	32.8 µM (≈ 9.92 µg/mL)	> 331 µM	> 331 µM	> 10.1	> 10.1
CC[C@@H](CO)NCCN[C@@H](CC)CO [ETHAMBUTOL]	7 µM (≈ 1.43 µg/mL)	–	–	–	–
CNC(=O)c1c(C(C)C)oc2nc(N3CCCC3)ccc12	> 87 µM	–	–	–	–
NCC[C@H](O)C(=O)N[C@@H]1C[C@H](N)[C@@H](O[C@H]2O[C@H](CN)[C@@H](O)[C@H](O)[C@H]2O)[C@H](O)[C@H]1O[C@H]1O[C@H](CO)[C@@H](O)[C@H](N)[C@H]1O [AMIKACIN]	0.4 µM (≈ 0.234 µg/mL)	–	–	–	–
CCCCNc1ccc2c(C(=O)OCC)c(C(C)C)oc2n1	23.2 µM (≈ 7.06 µg/mL)	> 328 µM	> 328 µM	> 14.2	> 14.2
CNC(=O)c1c(C)oc2nc(N3CCCC3)ccc12	> 96.4 µM	–	–	–	–

Compound	MIC90 [1]	IC50 (J774.A1)	IC50 (MRC5)	selectivity ratio [2]	selectivity ratio [3]
CCCSc1cnc2oc(C(C)C)c(C(=O)OCC)c2c1	> 81.3 µM	–	–	–	–
CCCCNc1cnc2oc(C(C)C)c(C(=O)OCC)c2c1	> 82.1 µM	–	–	–	–
CCOC(=O)c1c(C)oc2nccc(N3CCN(c4ccccc4)CC3)c12	> 68.5 µM	120 µM	–	–	–
COc1c(N2C[C@@H]3CCCN[C@@H]3C2)c(F)cc2c(=O)c(C(=O)O)cn(C3CC3)c12 [MOXIFLOXACIN]	< 0.2 µM	–	–	–	–
CCOC(=O)c1c(C(C)C)oc2nccc(N3CCOCC3)c12	> 78.5 µM	215 µM	–	–	–
CCOC(=O)c1c(C)oc2ncc(N3CCCC3)cc12	82.3 µM (≈ 22.6 µg/mL)	260 µM	> 364 µM	3.2	> 4.4
CCOC(=O)c1c(C(C)C)oc2nc(N3CCN(c4ccc(Cl)cc4)CC3)ccc12	> 58.5 µM	–	–	–	–
CO[C@H]1/C=C/O[C@@]2(C)Oc3c(C)c(O)c4c(O)c(c(/C=N/N5CCN(C)CC5)c(O)c4c3C2=O)NC(=O)/C(C)=C\C=C\[C@H](C)[C@H](O)[C@@H](C)[C@@H](O)[C@@H](C)[C@H](OC(C)=O)[C@@H]1C [RIFAMPIN]	0.06 µM (≈ 0.0494 µg/mL)	–	–	–	–
CCOC(=O)c1c(C)oc2nc(N3CC[C@@H](F)C3)ccc12	> 85.6 µM	–	> 342 µM	–	–
CCOC(=O)c1c(C)oc2nc(N3CCN(c4ccccc4)CC3)ccc12	> 68.5 µM	–	–	–	–
NNC(=O)c1ccncc1 [ISONIAZID]	0.8 µM (≈ 0.11 µg/mL)	–	–	–	–
CCOC(=O)c1c(-c2ccccc2)oc2ncc(N3CCCC3)cc12	> 74.4 µM	–	> 298 µM	–	–
CCOC(=O)c1c(C(C)C)oc2nc(N3CCOCC3)ccc12	> 78.5 µM	–	–	–	–
CCOC(=O)c1c(C)oc2nc(N3CCCC3)ccc12	10.5 µM (≈ 2.88 µg/mL)	196 µM	> 364 µM	18.7	> 34.7
CCOC(=O)c1c(C(C)C)oc2nc(N3CCN(c4ccccc4)CC3)ccc12	> 63.6 µM	–	–	–	–
CCOC(=O)c1c(C)oc2nc(N3CCOCC3)ccc12	> 86.1 µM	–	–	–	–
